Laboratory results as given in patent US8435929B2, “1-aminocyclopropane carboxylic acid as a fruit thinner” (Valent BioSciences Corporation, priority 2009, dated 2013).

Experiments:
Babygold #5 peach = assay: Field thinning study, fruit set of Babygold #5 peach; format: in vivo
Method: (§1) A series of field studies on stone fruit thinning were performed over several seasons, on different varieties and in various locations to determine the consistency of the thinning effect of ACC. Even without the application of a chemical thinning agent, crop load (number of fruit remaining divided by the number of flowers or fruit prior to application) was variable. Chemical thinning of stone fruit is variable and dependent on many factors including variety and environment. An acceptable chemical thinning agent is one that gives a substantial and relatively consistent reduction in crop load for a given dose over a wide range of trials.
The effect of ACC rate and timing was determined. ACC was sprayed on Babygold #5 peach trees at bloom (Table 1) or shuck split (early fruitlet stage) (Table 2).

Tatura 204 peaches = assay: Field thinning study, fruit set of Tatura 204 peaches; format: in vivo, peach; details: application at late shuck fall
Method: as §1
ACC was sprayed on Tatura 204 peach trees at late shuck fall (Table 3).

Rose Diamond nectarines = assay: Field thinning study, fruit set of Rose Diamond nectarines; format: in vivo, nectarine; details: application at late shuck fall
PF-27 peaches = assay: Field thinning study, ACC and ABA, fruit set of PF-27 peaches; format: in vivo, peach; details: application at shuck split
Excerpt: Application of ACC alone at shuck split reduced fruit set in a dose dependent manner (Table 10).

Babygold #5 peaches = assay: Scaffold gummosis rating of Babygold #5 peaches; format: in vivo, peach; details: in vivo
Excerpt: Gummosis is a physiological stress response in which sap oozes from fractures in tree bark and often leads to tree decline. Use of 2-chloroethylphosphonic acid as a stone fruit thinning has been limited because it can stimulate severe incidences of gummosis of stone fruit.

Fuji apples = assay: Field thinning study, fruit set and fruit weight of Fuji apples; format: in vivo, apple
Excerpt: ACC was foliar applied at the 10 or 20 mm fruit stage. […] Application of 100 ppm ACC was particularly effective in removing fruit when applied at the 20 mm fruit stage.
Similarly, ACC applications at petal fall were not effective for thinning Fuji apples, but later applications (10 and 20 mm) were effective (Table 14).

Chardonnay grapes = assay: Thinning study on Chardonnay grapes (cluster weight, berry weight, berries per rachis, rachis length); format: in vivo, grape; details: application at bloom
Excerpt: Application of ACC on grapes during bloom reduced the cluster weight and number of berries/cm rachis (Table 15). However, ACC applications produce the highly undesirable effect of reducing the rachis length and cluster size. Similar results have been seen in trials on other grape varieties in Michigan, California, and Australia.

cotton cotyledons = assay: Cotton cotyledon bioassay, ethylene production; format: in vivo
Excerpt: For laboratory and growth chamber studies, deionized ultra-pure water was used in preparing solutions. Spray solutions were used as soon as possible after mixing. All spray solutions were amended with spray adjuvants as appropriate. A cotton cotyledon bioassay was used in the laboratory to study the effects of ACC or ethephon on induction of ethylene. Ten day old cotton plants with fully expanded cotyledons were used. Sprays were made to the upper (adaxial) surface of the leaves and the plants were then incubated in growth cabinets at the temperatures indicated. The cotyledons were excised at the times indicated and placed in sealed plastic vials. Headspace ethylene samples were measured on a Hewlett Packard 5890 gas chromatograph equipped with a packed Haysep T column (Alltech, Deerfield, Ill.) and a flame ionization detector.
Selected characteristics of ACC conversion to ethylene (i.e. dose response, time course, and temperature effect) were assessed to determine whether the relative consistence of ACC as a stone fruit and apple thinner was related to performance as an ethylene producer. In these bioassays, ACC solutions were applied to cotton cotyledons by a hand sprayer at the doses indicated and all spray solutions contained 0.05% (v/v) L-77.
In the first study, the effect of ACC dose sprays on ethylene produced by cotton cotyledons was determined. (Table 16). Cotton plants were sprayed with solution (ACC at 1, 10, 25, 50, 100, 250, 500, or 1000 ppm) and the cotyledons were excised 6 or 24 h after spraying and incubated in sealed tubes for 4 h. Ethylene levels were determined production was assayed.
In the second study, the time course of ethylene production following application of 500 mg/liter ACC or ethephon was determined (Table 17).
In the third study, the effect of temperature on ethylene production following ACC or ethephon application was determined (Table 18). The incubation of the plants following spraying and the incubation of the detached leaves were performed at 25 and 35° C.

[1] = 100 ppm, application timing 10 mm
[2] = 100 ppm, application timing 20 mm
[3] = 300 ppm, application timing 10 mm
[4] = 300 ppm, application timing 20 mm
[5] = 1000 ppm, application timing 10 mm
[6] = 1000 ppm, application timing 20 mm

- Gummosis (in words) (Babygold #5 peaches): little gummosis
Compound: NC1(C(=O)O)CC1 [ACC, 1-aminocyclopropane carboxylic acid]
- Crop load (percent) of treated trees compared to the water control (Babygold #5 peach; 100 ppm, application at bloom): 90%
- Crop load (percent) of treated trees compared to the water control (Babygold #5 peach; 100 ppm, application at shuck split, 0.05% Regulaid adjuvant): 102%
- Crop load (percent) of treated trees compared to the water control (Babygold #5 peach; 300 ppm, application at bloom): 77%
- Percent fruit set (Babygold #5 peach; 300 ppm, application at bloom): 57%
- Percent fruit set (Babygold #5 peach; 300 ppm, application at shuck split, 0.05% Regulaid adjuvant): 61%
- Crop load (percent) of treated trees compared to the water control (Babygold #5 peach; 1000 ppm, application at bloom): 40%
- Percent fruit set (Babygold #5 peach; 1000 ppm, application at bloom): 30%
- Percent fruit set (Babygold #5 peach; 1000 ppm, application at shuck split, 0.05% Regulaid adjuvant): 11%
- Crop load (percent) of treated trees compared to the untreated control (Tatura 204 peaches; 100 ppm): 86%
- Percent fruit set (Tatura 204 peaches; 100 ppm): 65%
- Crop load (percent) of treated trees compared to the untreated control (Tatura 204 peaches; 300 ppm): 57%
- Percent fruit set (Tatura 204 peaches; 300 ppm): 43%
- Crop load (percent) of treated trees compared to the untreated control (Tatura 204 peaches; 500 ppm): 39%
- Percent fruit set (Tatura 204 peaches; 500 ppm): 30%
- Crop load (percent) of treated trees compared to the untreated control (Tatura 204 peaches; 1000 ppm): 36%
- Percent fruit set (Tatura 204 peaches; 1000 ppm): 27%
- Crop load (percent) of treated trees compared to the untreated control (Rose Diamond nectarines; 125 ppm): 88%
- Percent fruit set (Rose Diamond nectarines; 125 ppm): 60%
- Crop load (percent) of treated trees compared to the untreated control (Rose Diamond nectarines; 250 ppm): 90%
- Percent fruit set (Rose Diamond nectarines; 250 ppm): 61%
- Crop load (percent) of treated trees compared to the untreated control (Rose Diamond nectarines; 500 ppm): 65%
- Percent fruit set (Rose Diamond nectarines; 500 ppm): 44%
- Crop load (percent) of treated trees compared to the untreated control (Rose Diamond nectarines; 1000 ppm): 24%
- Percent fruit set (Rose Diamond nectarines; 1000 ppm): 16%
- Crop load (percent) of treated trees compared to the untreated control (PF-27 peaches; 100 ppm): 81%
- Percent fruit set (PF-27 peaches; 100 ppm): 70%
- Crop load (percent) of treated trees compared to the untreated control (PF-27 peaches; 300 ppm): 67%
- Percent fruit set (PF-27 peaches; 300 ppm): 58%
- Crop load (percent) of treated trees compared to the untreated control (PF-27 peaches; 1000 ppm): 15%
- Percent fruit set (PF-27 peaches; 1000 ppm): 13%
- Fruit weight (Fuji apples; [1]): 95 g
- Fruit/fruit cluster (Fuji apples; [1]): 0.79
- Fruit weight (Fuji apples; [2]): 130 g
- Fruit/fruit cluster (Fuji apples; [2]): 0.54
- Fruit weight (Fuji apples; [3]): 117 g
- Fruit/fruit cluster (Fuji apples; [3]): 0.66
- Fruit weight (Fuji apples; [4]): 132 g
- Fruit/fruit cluster (Fuji apples; [4]): 0.41
- Fruit per fruit cluster (Fuji apples; 500 ppm, timing 10 mm (6-7 mm) (Table 14 trial)): 0.27
- Fruit per fruit cluster (Fuji apples; 500 ppm, timing 20 mm (Table 14 trial)): 0.33
- Fruit per fruit cluster (Fuji apples; 500 ppm, timing petal fall (Table 14 trial)): 0.49
- Fruit weight (Fuji apples; [5]): 157 g
- Fruit/fruit cluster (Fuji apples; [5]): 0.28
- Fruit weight (Fuji apples; [6]): 161 g
- Fruit/fruit cluster (Fuji apples; [6]): 0.03
- Fruit per fruit cluster (Fuji apples; 1000 ppm, timing 10 mm (6-7 mm) (Table 14 trial)): 0.10
- Fruit per fruit cluster (Fuji apples; 1000 ppm, timing petal fall (Table 14 trial)): 0.39
- Thinning of Fuji apples (in words) (Fuji apples; applications at petal fall): not effective
- Berries per cm rachis (Chardonnay grapes; 100 ppm): 3.1
- Berry weight (Chardonnay grapes; 100 ppm): 1.2 g
- Cluster weight (Chardonnay grapes; 100 ppm): 128 g
- Rachis length (cm) (Chardonnay grapes; 100 ppm): 34 cm
- Berries per cm rachis (Chardonnay grapes; 300 ppm): 2.9
- Berry weight (Chardonnay grapes; 300 ppm): 1.2 g
- Cluster weight (Chardonnay grapes; 300 ppm): 78 g
- Rachis length (cm) (Chardonnay grapes; 300 ppm): 23 cm
- Berries per cm rachis (Chardonnay grapes; 1000 ppm): 1.6
- Berry weight (Chardonnay grapes; 1000 ppm): 1.1 g
- Cluster weight (Chardonnay grapes; 1000 ppm): 24 g
- Rachis length (cm) (Chardonnay grapes; 1000 ppm): 14 cm
- Ethylene production (cotton cotyledons; 10 ppm, 6 h after spraying, 25 C): 4.2 nl/g leaf weight/h incubated
- Ethylene production (cotton cotyledons; 10 ppm, 24 h after spraying, 25 C): 13.7 nl/g leaf weight/h incubated
- Ethylene production (cotton cotyledons; 25 ppm, 6 h after spraying, 25 C): 5.9 nl/g leaf weight/h incubated
- Ethylene production (cotton cotyledons; 25 ppm, 24 h after spraying, 25 C): 22.8 nl/g leaf weight/h incubated
- Ethylene production (cotton cotyledons; 50 ppm, 6 h after spraying, 25 C): 8.3 nl/g leaf weight/h incubated
- Ethylene production (cotton cotyledons; 50 ppm, 24 h after spraying, 25 C): 32.4 nl/g leaf weight/h incubated
- Ethylene production (cotton cotyledons; 100 ppm, 6 h after spraying, 25 C): 11.8 nl/g leaf weight/h incubated
- Ethylene production (cotton cotyledons; 100 ppm, 24 h after spraying, 25 C): 45.2 nl/g leaf weight/h incubated
- Ethylene production (cotton cotyledons; 200 ppm, 24 h after application, incubated at 25 C): 35.7 nl/g leaf weight/h incubated
- Ethylene production (cotton cotyledons; 200 ppm, 24 h after application, incubated at 35 C): 19.9 nl/g leaf weight/h incubated
- Ethylene production (cotton cotyledons; 250 ppm, 6 h after spraying, 25 C): 19.4 nl/g leaf weight/h incubated
- Ethylene production (cotton cotyledons; 250 ppm, 24 h after spraying, 25 C): 59.8 nl/g leaf weight/h incubated
- Ethylene production (cotton cotyledons; 500 ppm, 1 h following spray application, 25 C (time course)): 62.8 nl/g leaf weight/h incubated
- Ethylene production (cotton cotyledons; 500 ppm, 4 h following spray application, 25 C (time course)): 36.7 nl/g leaf weight/h incubated
- Ethylene production (cotton cotyledons; 500 ppm, 6 h after spraying, 25 C): 22.8 nl/g leaf weight/h incubated
- Ethylene production (cotton cotyledons; 500 ppm, 15 h following spray application, 25 C (time course)): 45.7 nl/g leaf weight/h incubated
- Ethylene production (cotton cotyledons; 500 ppm, 24 h after spraying, 25 C): 64.4 nl/g leaf weight/h incubated
- Ethylene production (cotton cotyledons; 500 ppm, 24 h following spray application, 25 C (time course)): 49.3 nl/g leaf weight/h incubated
- Ethylene production (cotton cotyledons; 500 ppm, 48 h following spray application, 25 C (time course)): 45.3 nl/g leaf weight/h incubated
- Ethylene production (cotton cotyledons; 1000 ppm, 6 h after spraying, 25 C): 25.1 nl/g leaf weight/h incubated
- Ethylene production (cotton cotyledons; 1000 ppm, 24 h after spraying, 25 C): 92.1 nl/g leaf weight/h incubated
